What all share (type): cell-based
The subject of data set [1] is dog hepatocytes. Kind of data set: Dog hepatocyte hypertrophy in standard HepatoPac micropatterned co-culture. Here is the method:
In order to create micropatterned co-cultures, hepatocytes were seeded in serum-free hepatocyte medium on collagen-patterned 24-well cell culture plates, resulting in a hepatocyte pattern due to selective cell adhesion. The cells were washed with media 2 to 6 hours later to remove unattached cells and incubated with serum supplemented hepatocyte medium overnight. 3T3-J2 or BJ fibroblasts were seeded in serum-supplemented fibroblast medium 12-24 hours later to create co-cultures. Culture medium was replaced with hepatocyte medium 24 hours after fibroblast seeding and subsequently replaced every one to two days. Spent media was stored for biochemical assays.
(§1) Hepatocyte growth factor (HGF) was implicated as one of the contributing factors causing dog hepatocyte hypertrophy and motility in the co-culture (data not shown). […] In summation, chemical inhibition (for example, via dexamethasone and TGFB2) of HGF secretion in the standard HepatoPac™ format is sufficient to abrogate hepatocyte hypertrophy.

The subject of data set [2] is HGF. Briefly: HGF secretion in standard HepatoPac co-culture under chemical inhibition. To be noted: standard HepatoPac format.
Description: as §1

Data set [3] deals with hepatocytes. Briefly: Hepatocyte hypertrophy in sandwich cultures with soluble HGF. The following applies: soluble HGF alone, data not shown.
Description: as §1

From patent US10696949B2, “Systems and methods for canine liver modeling” (Hepregen Corporation, priority 2015, dated 2020) come the findings set out here.

Where two headings read alike, the source gives them in different places.

For the molecule “TGFB2: HGF-inhibiting agent; known chemical inhibitor of HGF secretion”, in data set [1], the dog hepatocyte hypertrophy result is given as “diminished hypertrophy”. Moreover, the “HGF level (secretion)” value in data set [2] is on record as “HGF knockdown”.

On to “Soluble human HGF: Hepatocyte growth factor, soluble human protein added to sandwich cultures”, for which the hepatocyte hypertrophy result in data set [3] is recorded as “did not result in hepatocyte hypertrophy”.

Regarding `O=C1c2ccccc2-n2c1nc1ccccc1c2=O` [tryptanthrin], in data set [1] (standard HepatoPac format, 3T3-J2 stromal cells), the dog hepatocyte hypertrophy entry is “decreased dog hepatocyte hypertrophy”. In data set [2], the “HGF level (secretion)” value is “reduction in HGF”.

As to `C[C@@H]1C[C@H]2[C@@H]3CCC4=CC(=O)C=C[C@]4(C)[C@@]3(F)[C@@H](O)C[C@]2(C)[C@@]1(O)C(=O)CO` [dexamethasone], the dog hepatocyte hypertrophy result in data set [1] is “diminished hypertrophy”.

Regarding `C[C@H](CCC(=O)O)[C@H]1CC[C@H]2[C@@H]3[C@@H](O)C[C@@H]4C[C@H](O)CC[C@]4(C)[C@H]3CC[C@]12C` [UDCA], in data set [1], the dog hepatocyte hypertrophy entry is reported as “decreased dog hepatocyte hypertrophy”. In addition, the “HGF level (secretion)” value in data set [2] is listed as “reduction in HGF”.
